SMILES strings stand for the structures. Read-outs that look alike come from different tables or passages of the source.

The text below walks through data of patent JP2011231022A, “イミダゾロン誘導体” (Ajinomoto Co Inc, priority 2010, dated 2011).

Series [1] relates to aorta ring (大動脈リング). Put plainly: Endothelium-derived NO mechanism study in isolated rat aorta rings: endothelium removal and inhibitors (Example 3). Format: cell-based. The note with it: for relaxation of phenylephrine contraction with C-PTIO: NO scavenger C-PTIO 300 μM; for relaxation of phenylephrine contraction with C-PTIO / relaxation of phenylephrine contraction with L-NAME / relaxation of phenylephrine contraction with indomethacin / relaxation of phenylephrine contraction with ODQ: 15 min pretreatment; for relaxation of phenylephrine contraction with L-NAME: NOS inhibitor L-NAME 100 μM; for vasorelaxing action after endothelium removal: aorta ring with endothelium mechanically removed; for relaxation of phenylephrine contraction with indomethacin: cyclooxygenase inhibitor indomethacin 10 μM; for relaxation of phenylephrine contraction with ODQ: soluble guanylate cyclase inhibitor ODQ 1 μM.

Series [2] can be described thus: Oral absorption in fasted male ICR mice, plasma concentration by LC/MS (Example 7). The format is in vivo. The note with it: mouse (ICR male, fasted), 100 mg/kg oral.
For series [3], the system named is rat isolated blood vessel (ラット摘出血管). Put plainly: EC50 of vasorelaxation in phenylephrine-precontracted isolated rat aorta rings (Example 2). Format: cell-based.
Series [4] deals with phenylephrine-induced hypertensive model rat (フェニレフリン昇圧モデルラット). Put plainly: Hypotensive action in phenylephrine-induced hypertensive model rats (Example 8). Format: in vivo. The note with it: Wistar male rat; 40 mg/kg intravenous; phenylephrine 75 μg/kg/min.
In series [5] the test system is aorta ring (大動脈リング). Put plainly: Involvement of PI3K in relaxation of isolated rat aorta rings, wortmannin pretreatment (Example 4). Format: cell-based. The note with it: for relaxation rate: wortmannin (WO) 200 nM, 15 min pretreatment.
Series [6] concerns eNOS serine 1177 residue (eNOSセリン1177残基). Description: Phosphorylation of eNOS serine 1177 in isolated rat thoracic aorta rings (Examples 5 and 6). The format is cell-based. The note with it: 5 min; for enhancement of eNOS serine 1177 phosphorylation: without wortmannin.
Series [7] deals with Akt serine 473 residue (Aktセリン473残基). Description: Phosphorylation of Akt serine 473 in isolated rat thoracic aorta rings (Examples 5 and 6). As to conditions: 5 min; for enhancement of Akt serine 473 phosphorylation: without wortmannin. Format: cell-based.
Series [8] has as its system rat isolated blood vessel, thoracic aorta ring (ラット摘出血管、大動脈リング). Put plainly: Vasorelaxation of phenylephrine-precontracted isolated rat thoracic aorta rings (Example 1, screening). The format is cell-based. The note with it: 100 μM; 1 μM phenylephrine precontraction; endothelium intact.
[9] abbreviates: 100〜500 μM, wortmannin (WO) 200 nM, 20 min pretreatment.
Where [10] appears, read: concentration giving 50% relaxation of phenylephrine contraction, 1〜100 μM, logistic method, read-out: EC50.
The mark [11] stands for this setting: 100 μM or 300 μM, wortmannin (WO) pretreatment.

For `CC1N=C(NCCC[C@H](N)C(=O)O)NC1=O` (stereo partly shown) [I−1, Nδ−(5−ヒドロ−5−メチル−4−イミダゾロン−2−イル)−L−オルニチン], in the series with aorta ring (大動脈リング) [1], the “relaxation of phenylephrine contraction with C-PTIO” value (from here on “relaxation … with C-PTIO”) was “血管の弛緩が大幅に減弱した”, the “relaxation of phenylephrine contraction with L-NAME” value (shortened to “relaxation … with L-NAME”) is recorded as “血管の弛緩がほとんど見られなかった”, the “vasorelaxing action after endothelium removal” value (“vasorelaxing action” below) is “完全に消失した” and the “relaxation of phenylephrine contraction with indomethacin” value (shortened to “relaxation … with indomethacin”) is “血管の弛緩に全く影響を与えなかった”. Further, in the series on aorta ring (大動脈リング) [1], the “relaxation of phenylephrine contraction with ODQ” value (from here on “relaxation … with ODQ”) is on record as “血管の弛緩が大幅に減弱した”. In series [2] (at 15 min after dosing, read-out: maximum plasma concentration), the Cmax at 0.25 h came to 174 µM. Further, the Tmax in series [2] (read-out: time of maximum plasma concentration (converted)) is 15 min. A half-maximal effect in series [3] (EC50) was put at 13 µM. In series [4], the “maximum decrease of mean blood pressure” value is 12.7 mmHg and the “time from start of administration to onset of hypotensive action” value was roughly 1 min. The relaxation rate in the series on aorta ring (大動脈リング) [5] (50 μM) was determined as 10±3%. Further, the inhibition at 50 µM in the series on aorta ring (大動脈リング) [5] (Rattus norvegicus, read-out: relaxation rate) came out at 93 ± 3%.

Regarding `CC1(CO)N=C(NCCC[C@H](N)C(=O)O)NC1=O` (stereo partly shown) [I−2, Nδ−(5−メチル−5−ヒドロキシメチル−4−イミダゾロン−2−イル)−L−オルニチン], the “enhancement of eNOS serine 1177 phosphorylation” value in series [6] (100〜500 μM) is “濃度依存的にeNOSセリン1177残基のリン酸化亢進作用を示した”. The “eNOS serine 1177 phosphorylation after wortmannin pretreatment” value in series [6] (setting [9]) was “完全に抑制された”. For the same compound, the “enhancement of Akt serine 473 phosphorylation” value in series [7] (100〜500 μM) was “Aktセリン473残基のリン酸化亢進作用を示した”. Moreover, the “Akt serine 473 phosphorylation after wortmannin pretreatment” value in series [7] (setting [9]) is on record as “完全に抑制され”.

Turning to `N[C@@H](CCCNC1=NC(CCO)C(=O)N1)C(=O)O` (stereo partly shown) [I−3, Nδ−[5−ヒドロ−5−(2−ヒドロキシエチル)−4−イミダゾロン−2−イル]−L−オルニチン], in the series with aorta ring (大動脈リング) [1], the “relaxation … with C-PTIO” value was “血管の弛緩が大幅に減弱した”, the “relaxation … with L-NAME” value is “血管の弛緩がほとんど見られなかった”, the “vasorelaxing action” value is “完全に消失した” and the “relaxation … with indomethacin” value is given as “血管の弛緩に全く影響を与えなかった”. The “relaxation … with ODQ” value in the series with aorta ring (大動脈リング) [1] is given as “血管の弛緩が大幅に減弱した”. Besides, the EC50 (usually the concentration needed to bring the measured effect to its halfway point) in series [3] (setting [10]) was determined as 71 µM. In addition, the “enhancement of eNOS serine 1177 phosphorylation” value in series [6] (100〜500 μM) was “濃度依存的にeNOSセリン1177残基のリン酸化亢進作用を示した”. In addition, the “eNOS serine 1177 phosphorylation after wortmannin pretreatment” value in series [6] (setting [9]) is listed as “完全に抑制された”. The relaxation rate with aorta ring (大動脈リング) [5] (100 μ (so in the source)) is listed as 3±3%. In the series with aorta ring (大動脈リング) [5] (Rattus norvegicus, 100 μ (so in the source), untreated control (no wortmannin), read-out: relaxation rate), the inhibition at 100 µM amounted to 62 ± 8%. Moreover, the “enhancement of Akt serine 473 phosphorylation” value in series [7] (100〜500 μM) is recorded as “Aktセリン473残基のリン酸化亢進作用を示した”. Besides, in series [7] (setting [9]), the “Akt serine 473 phosphorylation after wortmannin pretreatment” value is listed as “完全に抑制され”.

Regarding `N[C@@H](CCCNC1=NC(CC(O)C(O)CO)C(=O)N1)C(=O)O` (stereo partly shown) [I−7, Nδ−[5−ヒドロ−5−(2,3,4−トリヒドロキシブチル)−4−イミダゾロン−2−イル]−L−オルニチン], in the series with aorta ring (大動脈リング) [1], the “relaxation … with C-PTIO” value is on record as “血管の弛緩が大幅に減弱した”, the “relaxation … with L-NAME” value was “血管の弛緩がほとんど見られなかった”, the “vasorelaxing action” value is on record as “完全に消失した” and the “relaxation … with indomethacin” value was “血管の弛緩に全く影響を与えなかった”. Moreover, in the series with aorta ring (大動脈リング) [1], the “relaxation … with ODQ” value is given as “血管の弛緩が大幅に減弱した”. Also, the EC50 in series [3] (setting [10]) is 25 µM. In series [6] (setting [11]), the “eNOS serine 1177 phosphorylation after wortmannin pretreatment” value is “完全に抑制された”. In addition, the “enhancement of eNOS serine 1177 phosphorylation” value in series [6] (300 μM) was “eNOSセリン1177残基のリン酸化亢進作用を示した”. Moreover, the relaxation rate with aorta ring (大動脈リング) [5] (50 μM) was 5±2%. In the series on aorta ring (大動脈リング) [5] (Rattus norvegicus, 50 μM, untreated control (no wortmannin), read-out: relaxation rate), the inhibition at 50 µM stood at 90 ± 5%. For the same compound, in series [7] (setting [11]), the “Akt serine 473 phosphorylation after wortmannin pretreatment” value is “完全に抑制され”. Besides, in series [7] (300 μM), the “enhancement of Akt serine 473 phosphorylation” value was “Aktセリン473残基のリン酸化亢進作用を示した”.

Turning to `N=C(N)NCCC[C@H](N)C(=O)O` [L−アルギニン], the “vasodilating action (relaxation of phenylephrine contraction)” value (“vasodilating action” below) in series [8] is “血管拡張作用が見出せなかった”.

In the case of `OC[C@H]1OC(O)[C@H](O)[C@@H](O)[C@@H]1O` (stereo partly shown) [グルコース], the “vasodilating action” value in series [8] is “血管拡張作用が見出せなかった”.

`N=C(N)NCCC[C@H](NCC(=O)[C@@H](O)[C@H](O)[C@H](O)CO)C(=O)O` [フラクトシルアルギニン]: the “vasodilating action” value in series [8] is given as “血管拡張作用が見出せなかった”.
